In ChEMBL document CHEMBL1149877, “Synthesis and biological activities of 2-oxocycloalkylsulfonamides” (Bioorg Med Chem, 2008):
In brackets after ≈: the same amount, converted by molar mass.

Key:
Botrytis cinerea = assay: Antifungal activity against Botrytis cinerea Pers; assay type: functional, organism-based
Sclerotinia sclerotiorum = assay: Antifungal activity against Sclerotinia sclerotiorum; assay type: functional, organism-based
HL-60 = assay: Antitumor activity against human HL60 cells at 100 ug/mL by MTT method; assay type: functional
BGC-823 = assay: Antitumor activity against human BGC823 cells at 100 ug/mL by SRB method; assay type: functional
Bel-7402 = assay: Antitumor activity against human Bel7402 cells at 100 ug/mL by SRB method; assay type: functional
KB = assay: Antitumor activity against human KB cells at 100 ug/mL by SRB method; assay type: functional

Row | SMILES | EC50 (Botrytis cinerea) | EC50 (Sclerotinia sclerotiorum) | inhibition at 100 µg/mL (HL-60) | inhibition at 100 µg/mL (BGC-823) | inhibition at 100 µg/mL (Bel-7402) | inhibition at 100 µg/mL (KB)
1 | Cc1cc(F)ccc1NS(=O)(=O)C1CCCCC1=O (centres undefined) | 37.7 µg/mL (≈ 132 µM) | 137 µg/mL (≈ 480 µM) | -0.99% | 28.7% | 3.22% | -3.72%
2 | O=C1CCCCC1S(=O)(=O)N1CCOCC1 (centres undefined) | 85.2 µg/mL (≈ 345 µM) | 331 µg/mL (≈ 1340 µM) | 11% | 21.3% | 6.01% | -4.35%
3 | Cc1cccc(NS(=O)(=O)C2CCCCCC2=O)c1C (centres undefined) | 11.6 µg/mL (≈ 39.3 µM) | 47.6 µg/mL (≈ 161 µM) | 22.9% | 23.8% | 12.1% | 2.01%
4 | O=C1CCCCC1S(=O)(=O)Nc1ccc(Cl)cc1 (centres undefined) | 17 µg/mL (≈ 59 µM) | 53.4 µg/mL (≈ 186 µM) | -13% | 16% | 4.47% | -3.83%
5 | O=C1CCCCC1S(=O)(=O)Nc1cc(C(F)(F)F)ccc1C(F)(F)F (centres undefined) | 3.66 µg/mL (≈ 9.4 µM) | 70.5 µg/mL (≈ 181 µM) | 95.7% | 57.7% | 68.3% | 68.6%
6 | O=C1CCCCC1S(=O)(=O)Nc1cc(C(F)(F)F)cc(C(F)(F)F)c1 (centres undefined) | 3.96 µg/mL (≈ 10.2 µM) | 24.1 µg/mL (≈ 62 µM) | 95.9% | 70.8% | 66.9% | 76%
7 | O=C1CCCCC1S(=O)(=O)Nc1cccc(C(F)(F)F)c1 (centres undefined) | 85.2 µg/mL (≈ 265 µM) | 144 µg/mL (≈ 448 µM) | 17% | 21.6% | 11.4% | -6.3%
8 | CC12CC1(C)C(=O)N(c1cc(Cl)cc(Cl)c1)C2=O (centres undefined) [PROCYMIDONE] | 2.45 µg/mL (≈ 8.62 µM) | – | – | – | – | –
9 | O=C1CCCCC1S(=O)(=O)Nc1ccc(Cl)cc1C(F)(F)F (centres undefined) | 2.12 µg/mL (≈ 5.96 µM) | 47.5 µg/mL (≈ 134 µM) | 78.6% | 36.4% | 20.9% | 11.2%
10 | Cc1ccc(NS(=O)(=O)C2CCCCC2=O)c(C)c1 (centres undefined) | 17 µg/mL (≈ 60.3 µM) | 112 µg/mL (≈ 397 µM) | 12.2% | 15.6% | 0.52% | 7.97%
11 | O=C1CCCCC1S(=O)(=O)Nc1ccccc1Br (centres undefined) | 50.6 µg/mL (≈ 152 µM) | 47.8 µg/mL (≈ 144 µM) | 15.3% | 29.6% | 22.1% | -14.4%
12 | O=C1CCCCC1S(=O)(=O)Nc1ccccc1Cl (centres undefined) | 35.2 µg/mL (≈ 122 µM) | 69.4 µg/mL (≈ 241 µM) | 0.29% | 29.2% | 1.98% | -10.1%
13 | Cc1ccc(NS(=O)(=O)C2CCCCC2=O)cc1 (centres undefined) | 21.2 µg/mL (≈ 79.4 µM) | 116 µg/mL (≈ 434 µM) | -3.55% | 32% | 27.5% | -22.2%
14 | O=C1CCCCCC1S(=O)(=O)Nc1cc(C(F)(F)F)cc(C(F)(F)F)c1 (centres undefined) | 2.43 µg/mL (≈ 6.02 µM) | 8.05 µg/mL (≈ 20 µM) | 95.8% | 57% | 45.3% | 59%
15 | COc1cc(OC)nc(NS(=O)(=O)C2CCCCC2=O)n1 (centres undefined) | 28.6 µg/mL (≈ 90.8 µM) | 197 µg/mL (≈ 626 µM) | 2.62% | 26.4% | 39.3% | 2.73%
16 | O=C1CCCCCC1S(=O)(=O)Nc1ccc(Cl)c(Cl)c1 (centres undefined) | 2.38 µg/mL (≈ 7.08 µM) | 16.4 µg/mL (≈ 48.7 µM) | 15% | 28.9% | 4.03% | -6.3%
17 | N#Cc1c(Cl)c(Cl)c(Cl)c(C#N)c1Cl [CHLOROTHALONIL] | – | 7.16 µg/mL (≈ 26.9 µM) | – | – | – | –
18 | Cc1cccc(NS(=O)(=O)C2CCCCC2=O)c1C (centres undefined) | 24.2 µg/mL (≈ 86 µM) | 59.3 µg/mL (≈ 211 µM) | 9.38% | 24.5% | 21.8% | -20.6%
19 | O=C1CCCCC1S(=O)(=O)Nc1ccc(Cl)c(Cl)c1 (centres undefined) | 7.23 µg/mL (≈ 22.4 µM) | 24.2 µg/mL (≈ 75.2 µM) | 13.5% | 5.54% | 1.39% | 17.8%
